According to patent US20180179524A1, “COMPOSITIONS AND METHODS FOR INHIBITING CELL PROLIFERATION” (President and Fellows of Harvard College, priority 2015, published 2018):

What was measured:
Tsc2−/− MEFs = test: Proliferation of Tsc2-/- MEFs relative to Tsc2+/+ MEFs treated with compounds (FIG. 9); format: cell-based; settings: for cytotoxic effect on Tsc2−/− cells / selective effects on cell viability in Tsc2−/− cells compared with rapamycin: JWD07 5 μM, AT7915 2 μM; for cytotoxic effect on Tsc2−/− cells: Mizoribine 2.5 μM; for selective effects on cell viability in Tsc2−/− cells compared with rapamycin: Mizoribine 2.5 μM vs Rapamycin 20 nM
Experimental: FIG. 9 is a series of panels, panels A-E showing TSC2 loss confers sensitivity to CCNT1, RNGTT, or CDK11 loss of function. Panel A is a schematic of the methods disclosed herein. […] Panel B represents data corresponding to the CDK9/CDK11 inhibitor JWD07 (5 μM). Panel C represents data corresponding to the CDK2/CDK9/CDK11 inhibitor AT7915 (2 μM). Panel D represents data corresponding to the RNGTT/IMPDH inhibitor Mizoribine (2.5 μM). Panel E represents data corresponding to the mTORC1 inhibitor Rapamycin (20 nM).

[1] = test system: luciferase-based reporter constructs in S2R+ cells; test: Luciferase-based mutation reporter assay (sgRNA mutation efficiency); format: cell-based, Drosophila; settings: sgRNAs with no mismatches targeting luciferase-based reporter in S2R+ cells; mutation rate = 1/Firefly luciferase normalized to Renilla
Experimental: The luciferase reporter vector was constructed by PCR amplifying the metallothionein promoter from pMK33 and luciferase gene from pGL3 (Table 1) and combining these with annealed oligos containing a gRNA target site (Table 1 and Table 2) and a custom made cloning vector using Golden Gate assembly.
Luciferase assays were performed by transfecting S2R+ cells with the relevant pl018 plasmid, luciferase reporter and pRL-TK (Promega) (to allow normalization of transfection efficiencies between samples) in 96 well plates using Effectene Transfection Reagent (Qiagen) according to the manufacturer's recommendations. Twenty-four hours after transfection, CuSO4 was added to the cell media at a final concentration of 140 μM and cells were incubated for a further 16 hours.
Firefly and Renilla luciferase readings were taken using the Dual-Glo Luciferase Assay System (Promega) according to manufacturer's instructions and a SpectraMax Paradigm Multi-Mode Microplate Detection Platform (Molecular Devices).
Because the rate of mutations varies widely between different sgRNAs (25-27), whether efficiency could be predicted based on the sgRNA sequence was tested. 75 additional sgRNAs were generated, each targeting luciferase-based reporter constructs with no mismatches and tested mutation efficiency for each. Using this panel of sgRNAs and associated efficiencies, the presence or absence of a correlation between GC content and mutation rate was examined. […] Next, whether a more general sequence-based approach was tested for its ability to improve efficiency prediction. The nucleotide content of all 75 sgRNAs was examined, considering each position separately and generated a probability matrix linking nucleotide content with mutation rate (FIG. 1, panel B). This was then used to generate predicted efficiency scores based on sgRNA sequence. […] Note that sgRNAs targeting close to the 3′ end of genes or with apparent viability effects were not included in this analysis. Finally, predicted scores were generated for all sgRNA target sites in the Drosophila genome and annotated.

Compound | Mean efficiency [1] | also measured
O=C(NC1CCNCC1)c1n[nH]cc1NC(=O)c1c(Cl)cccc1Cl [AT7915] | – | proliferation of Tsc2−/− MEFs relative to Tsc2+/+ MEFs (Tsc2−/− MEFs; 2 μM, FIG. 9 panel C): selectively reduce proliferation; cytotoxic effect on Tsc2−/− cells (Tsc2−/− MEFs): exert a cytotoxic effect; selective effects on cell viability in Tsc2−/− cells compared with rapamycin (Tsc2−/− MEFs): superior to rapamycin
NC(=O)c1ncn([C@@H]2O[C@H](CO)[C@@H](O)[C@H]2O)c1O [Mizoribine] | – | proliferation of Tsc2−/− MEFs relative to Tsc2+/+ MEFs (Tsc2−/− MEFs; 2.5 μM, FIG. 9 panel D): selectively reduce proliferation; cytotoxic effect on Tsc2−/− cells (Tsc2−/− MEFs): exert a cytotoxic effect; selective effects on cell viability in Tsc2−/− cells compared with rapamycin (Tsc2−/− MEFs): superior to rapamycin
GCCCAGGGGGAATCGGCCGC: sgRNA targeting a luciferase-based reporter construct, no mismatches (chemistry not given here) | 0.4072 | –
GCCCGAAAGACACGTTTTTT: sgRNA targeting a luciferase-based reporter construct, no mismatches (chemistry not given here) | 0.197 | –
GCGAGTTATCTATCCCCAGG: sgRNA targeting a luciferase-based reporter construct, no mismatches (chemistry not given here) | 0.4749 | –
GCTCTGGACCATACGGGGAT: sgRNA targeting a luciferase-based reporter construct, no mismatches (chemistry not given here) | 0.1746 | –
GGAATAACCACGTCCCGCGT: sgRNA targeting a luciferase-based reporter construct, no mismatches (chemistry not given here) | 0.2894 | –
GGAGCGAGTTATCTATCCCC: sgRNA targeting a luciferase-based reporter construct, no mismatches (chemistry not given here) | 0.06181 | –
GGATGTTCCGGCACAACGCC: sgRNA targeting a luciferase-based reporter construct, no mismatches (chemistry not given here) | 0.2753 | –
GGCACCGGGTAGCCTTGCGC: sgRNA targeting a luciferase-based reporter construct, no mismatches (chemistry not given here) | 0.3497 | –
GGGCTCCAGGCTGCGCGCAA: sgRNA targeting a luciferase-based reporter construct, no mismatches (chemistry not given here) | 0.2308 | –
GGTTACCAACTCAGGACCCG: sgRNA targeting a luciferase-based reporter construct, no mismatches (chemistry not given here) | 0.4858 | –
GGTTCACTATTGGGGCGATC: sgRNA targeting a luciferase-based reporter construct, no mismatches (chemistry not given here) | 0.1771 | –
GTCGGAACCTGAGTCGTTTT: sgRNA targeting a luciferase-based reporter construct, no mismatches (chemistry not given here) | 0.5891 | –
GTGCTGCGCCAACCCAAATA: sgRNA targeting a luciferase-based reporter construct, no mismatches (chemistry not given here) | 0.0849 | –
GTGGAATCTACTGTGGAATC: sgRNA targeting a luciferase-based reporter construct, no mismatches (chemistry not given here) | 0.2969 | –
GTGTCCAGGCTCGTCATGCC: sgRNA targeting a luciferase-based reporter construct, no mismatches (chemistry not given here) | 0.8603 | –

Compound | Mean efficiency [1] | also measured
TAAGACATACGTACGCCCAG: sgRNA targeting a luciferase-based reporter construct, no mismatches (chemistry not given here) | 0.1814 | –
TCCTATTACTGCGTGCAGCC: sgRNA targeting a luciferase-based reporter construct, no mismatches (chemistry not given here) | 1.342 | –
TCGAGGATGGGACGCTTATC: sgRNA targeting a luciferase-based reporter construct, no mismatches (chemistry not given here) | 0.5053 | –
TCGATGACGCCCGGGTTAAC: sgRNA targeting a luciferase-based reporter construct, no mismatches (chemistry not given here) | 0.26 | –
TCGCGGGCTTGCATGACGCG: sgRNA targeting a luciferase-based reporter construct, no mismatches (chemistry not given here) | 0.3295 | –
TCGTACCGCACCGGTATTTT: sgRNA targeting a luciferase-based reporter construct, no mismatches (chemistry not given here) | 0.1565 | –
TGACGCCTCAGGGTGCCGTC: sgRNA targeting a luciferase-based reporter construct, no mismatches (chemistry not given here) | 0.6594 | –
TGCGCTTACCGACGATTGGG: sgRNA targeting a luciferase-based reporter construct, no mismatches (chemistry not given here) | 0.1109 | –
TGCGGTCGCGTGAGAAATAT: sgRNA targeting a luciferase-based reporter construct, no mismatches (chemistry not given here) | 0.02876 | –
TGTTCCCTACACGGCGCCAG: sgRNA targeting a luciferase-based reporter construct, no mismatches (chemistry not given here) | 0.2531 | –
TTCTCCGCTGTTATCCTATA: sgRNA targeting a luciferase-based reporter construct, no mismatches (chemistry not given here) | 0.08182 | –
TTCTGAGTACATGTGATACC: sgRNA targeting a luciferase-based reporter construct, no mismatches (chemistry not given here) | 0.2974 | –
TTGACATCAGCGCGCGAGGC: sgRNA targeting a luciferase-based reporter construct, no mismatches (chemistry not given here) | 0.3893 | –
TTGGCCGCGACCTGTTTATC: sgRNA targeting a luciferase-based reporter construct, no mismatches (chemistry not given here) | 0.9282 | –
TTGTTCGAAGATCTGCGCGA: sgRNA targeting a luciferase-based reporter construct, no mismatches (chemistry not given here) | 0.2212 | –
TTGTTTGCTGGTACAAACGC: sgRNA targeting a luciferase-based reporter construct, no mismatches (chemistry not given here) | 0.2993 | –
TTTTTTTGGGATCATATACG: sgRNA targeting a luciferase-based reporter construct, no mismatches (chemistry not given here) | 0.1278 | –
